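These data come from cells grown in 96-well plates and exposed to compound for 48 hours at five concentrations. Abbreviation: GI50, concentration required for 50% inhibition of growth.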 Active and inactive are the calls of the source. Cut-off read from the data, not from the text of the source: active = GI50 up to about 1.1 µM and inactive = higher.
Experiments:
Assay in all cases: NCI-60 cell line screen, 48 h
SN12C = tested on: SN12C
SK-MEL-2 = tested on: SK-MEL-2
NCI/ADR-RES = tested on: NCI/ADR-RES
MDA-MB-231 = tested on: MDA-MB-231
OVCAR-5 = tested on: OVCAR-5
Malme-3M = tested on: Malme-3M
A498 = tested on: A498
EKVX = tested on: EKVX
PC-3 = tested on: PC-3
Hs-578T = tested on: Hs-578T
SW-620 = tested on: SW-620
SNB-19 = tested on: SNB-19
KM12 = tested on: KM12
HOP-62 = tested on: HOP-62
OVCAR-8 = tested on: OVCAR-8
UO-31 = tested on: UO-31
RXF 393 = tested on: RXF 393
M14 = tested on: M14
MDA-MB-435 = tested on: MDA-MB-435
MCF7 = tested on: MCF7

| Compound | GI50 (SN12C) | GI50 (SK-MEL-2) | GI50 (NCI/ADR-RES) | GI50 (MDA-MB-231) | GI50 (OVCAR-5) | GI50 (Malme-3M) | GI50 (A498) | GI50 (EKVX) | GI50 (PC-3) | GI50 (Hs-578T) | GI50 (SW-620) | GI50 (SNB-19) | GI50 (KM12) | GI50 (HOP-62) | GI50 (OVCAR-8) | GI50 (UO-31) | GI50 (RXF 393) | GI50 (M14) | GI50 (MDA-MB-435) | GI50 (MCF7) |
| --- | --- | --- | --- | --- | --- | --- | --- | --- | --- | --- | --- | --- | --- | --- | --- | --- | --- | --- | --- | --- |
| COc1ccc2c3c1OC1C34CCN(C)C(C2)C4=CC(I)C1(OC)OC (configuration not stated) | 5.78 µM (inactive) | 15.6 µM (inactive) | 41.5 µM (inactive) | 18.5 µM (inactive) | 18.6 µM (inactive) | 7.21 µM (inactive) | 22.9 µM (inactive) | 14.4 µM (inactive) | 10.2 µM (inactive) | 37 µM (inactive) | 2.68 µM (inactive) | 16.2 µM (inactive) | 14.4 µM (inactive) | 8.77 µM (inactive) | 4.09 µM (inactive) | 14.9 µM (inactive) | 10.5 µM (inactive) | 14.3 µM (inactive) | 4.12 µM (inactive) | 5.08 µM (inactive) |
| COc1cc(O)c2c(=O)c(OC)c(-c3ccc(OC)c(O)c3)oc2c1 [AYANIN] | 61.9 µM (inactive) | > 100 µM (inactive) | > 100 µM (inactive) | 14.8 µM (inactive) | 37.4 µM (inactive) | 24 µM (inactive) | 3.44 µM (inactive) | 62.5 µM (inactive) | 30.8 µM (inactive) | 7.85 µM (inactive) | > 100 µM (inactive) | > 100 µM (inactive) | 35.7 µM (inactive) | 31.5 µM (inactive) | 66.5 µM (inactive) | 28.9 µM (inactive) | 57.3 µM (inactive) | 52.2 µM (inactive) | 34.7 µM (inactive) | 15.5 µM (inactive) |
| CC(C)Cc1ccc(C(C)/C=C2\CCC(CN3CCOCC3)C2=O)cc1 (configuration not stated) | 9.27 µM (inactive) | 16.6 µM (inactive) | 3.93 µM (inactive) | 1.73 µM (inactive) | 20.7 µM (inactive) | 13.5 µM (inactive) | 12.5 µM (inactive) | 18 µM (inactive) | 12.3 µM (inactive) | 3.6 µM (inactive) | 3 µM (inactive) | 8.51 µM (inactive) | 5.47 µM (inactive) | 11.7 µM (inactive) | 3.61 µM (inactive) | 8.73 µM (inactive) | 8.43 µM (inactive) | 5.02 µM (inactive) | 6.92 µM (inactive) | 4.31 µM (inactive) |
| COc1ccc(-c2cc(-c3ccccc3)nc(N)n2)c(O)c1 | > 25.3 µM (inactive) | 7.08 µM (inactive) | > 52 µM (inactive) | > 26.2 µM (inactive) | > 100 µM (inactive) | > 100 µM (inactive) | > 100 µM (inactive) | > 24.9 µM (inactive) | 6.68 µM (inactive) | > 100 µM (inactive) | 5.32 µM (inactive) | > 82.8 µM (inactive) | 4.67 µM (inactive) | > 49.5 µM (inactive) | 8.69 µM (inactive) | 2.13 µM (inactive) | > 100 µM (inactive) | > 27.3 µM (inactive) | 3.56 µM (inactive) | 0.984 µM (active) |
| Cc1ccc(NC(=O)CC(=O)n2nc(C)c(/N=N/c3ccc(S(=O)(=O)CCOS(=O)(=O)O)cc3)c2C)cc1 | > 10 µM (inactive) | > 100 µM (inactive) | > 100 µM (inactive) | > 100 µM (inactive) | > 100 µM (inactive) | > 100 µM (inactive) | > 100 µM (inactive) | > 100 µM (inactive) | > 100 µM (inactive) | > 100 µM (inactive) | > 100 µM (inactive) | > 100 µM (inactive) | > 100 µM (inactive) | > 100 µM (inactive) | > 100 µM (inactive) | > 100 µM (inactive) | > 100 µM (inactive) | > 100 µM (inactive) | > 100 µM (inactive) | > 100 µM (inactive) |
| Cc1cc(-c2nc3ccccc3s2)ccc1NC(=O)[C@H](C)N | 14.7 µM (inactive) | 17.5 µM (inactive) | 18.3 µM (inactive) | 14.3 µM (inactive) | 0.441 µM (active) | 24 µM (inactive) | 14.4 µM (inactive) | – | 13.1 µM (inactive) | 24.3 µM (inactive) | 14.8 µM (inactive) | 15.1 µM (inactive) | 14.4 µM (inactive) | 13.8 µM (inactive) | 17.9 µM (inactive) | 5.78 µM (inactive) | 12.3 µM (inactive) | 3.14 µM (inactive) | 7.18 µM (inactive) | 0.372 µM (active) |
| C=C1C(=O)C2(C)OC2(C)C1C(=O)O (configuration not stated) | > 100 µM (inactive) | > 100 µM (inactive) | > 100 µM (inactive) | > 100 µM (inactive) | > 100 µM (inactive) | – | – | > 100 µM (inactive) | > 100 µM (inactive) | > 100 µM (inactive) | > 100 µM (inactive) | > 100 µM (inactive) | > 100 µM (inactive) | > 100 µM (inactive) | > 100 µM (inactive) | > 100 µM (inactive) | > 100 µM (inactive) | > 100 µM (inactive) | > 100 µM (inactive) | > 100 µM (inactive) |

— ChEMBL document CHEMBL1201862, “PubChem BioAssay data set” (2004)
